Columns and labels:
Test in all cases: Real time RT-PCR (Taqman) assay in HUVEC
Format in all cases: cell-based, human
Flt-1 mRNA = conditions: HUVEC in three dimensional collagen gels; VEGF, bFGF, PMA; 10:M 15d-PGJ2
Description: (§1) This technique has been used to quantitatively monitor mRNA expression and has been described in detail previously (Heid, C. A. et al., (1996) Genome Methods 6:986-994; Gerber, H. et al., (1997) J. Biol. Chem. 272:23659-23667). Total RNA was extracted from HUVEC cultured in three dimensional collagen gels or on collagen-coated flasks for various times in 1× basal medium consisting of M199 supplemented with 1%FBS, 1× ITS, 2 mM L-glutamine, 50 μg/ml ascorbic acid, 26.5 mM NaHCO3, 100 U/ml penicillin and 100 U/ml streptomycin supplemented with 40 ng/ml bFGF (basic fibroblast growth factor), 40 ng/ml VEGF and 80 nM PMA […]. […] The primers and probes used were as follows: […] forward primer 5′-[…]-3′ (SEQ ID NO: 7), reverse primer 5′-CACCATCGCGACCAGATG-3′ (SEQ ID NO: 8), and probe 5′-[…]-3′ (SEQ ID NO: 9); […] forward primer 5′-TGACCTGCGGCAACTGG-3′ (SEQ ID NO: 10), reverse primer 5′-[…]-3′ (SEQ ID NO: 11), and probe 5′-[…]-3′ (SEQ ID NO: 12); human PPARβ gene forward primer 5′-[…]-3′ (SEQ ID NO: 13), reverse primer 5′-[…]-3′ (SEQ ID NO: 14), and probe 5′-[…]-3′ (SEQ ID NO: 15); human Flk/KDR gene forward primer 5′-[…]-3′ (SEQ ID NO: 16), reverse primer 5′-[…]-3′ (SEQ ID NO: 17), and probe 5′-[…]-3′ (SEQ ID NO: 18); human Flt-1 gene forward primer 5′-[…]-3′ (SEQ ID NO: 19), reverse primer 5′-[…]-3′ (SEQ ID NO: 20), and probe 5′-[…]-3′ (SEQ ID NO: 21); human uPA gene forward primer 5′-[…]-3′ (SEQ ID NO: 22), reverse primer 5′-GCGCACACCTGCCCTC-3′ (SEQ ID NO: 23), and probe 5′-[…]-3′ (SEQ ID NO: 24); human PAI-1 gene forward primer 5′-TCGTCCAGCGGGATCTGA-3′ (SEQ ID NO: 25), reverse primer 5′-GTGCTCCGGAACAGCCTG-3′ (SEQ ID NO: 26), and probe 5′-[…]-3′ (SEQ ID NO: 27); human glyceraldehyde-3-phosphate dehydrogenase (GAPDH) gene forward 5′-GAAGGTGAAGGTCGGAGTC-3′ (SEQ ID NO: 28), reverse 5′-[…]-3′ (SEQ ID NO: 29), and probe 5′-[…]-3′ (SEQ ID NO: 30). Total RNA (100 ng) was added to a 50 μl RT-PCR reaction mixture according to the manufacturer's protocol (Roche Molecular Systems, Inc., Branchburg, N.J.). The thermal cycling conditions included 1 cycle at 48° C. for 30 min, 1 cycle at 95° C. for 10 min, 40 cycles at 95° C. for 15 s, at 60° C. for 1 min and finally hold at 25° C. for 2 min. Standard curves for expression of each gene were generated by serial dilution of the total RNA isolated from HUVEC. […] Therefore, the relative mRNA expression of each gene was normalized to the level of GAPDH in the same RNA preparation.

Flk/KDR mRNA = conditions: HUVEC in three dimensional collagen gels; VEGF, bFGF, PMA; 10:M 15d-PGJ2
Description: as §1

PAI-1 mRNA = conditions: at 24 hr; HUVEC in three dimensional collagen gels; 10:M 15d-PGJ2
Description: as §1

uPA mRNA = conditions: at 4 hr; HUVEC in three dimensional collagen gels; 10:M 15d-PGJ2
Description: as §1

## CCCCC/C=C/C=C1/C(=O)C=CC1C/C=C\CCCC(=O)O (stereo not shown) [15d-PGJ2, 15-deoxy-delta^12,14-PGJ2]
Flt-1 mRNA
  Flt-1 mRNA induction by growth factors: inhibited the induction
Flk/KDR mRNA
  KDR mRNA induction by growth factors: inhibited the induction
PAI-1 mRNA
  PAI-1 gene expression: increased
uPA mRNA
  uPA mRNA: reduced
